Results on 5 compounds are retold here after patent publication US10112931B2, “3-pyrimidin-4-yl-oxazolidin-2-ones as inhibitors of mutant IDH” (NOVARTIS AG, priority 2013, dated 2018).

Common to all, as to format: in vitro ADME
Data set [1] can be described thus: Metabolic stability in liver microsomes, Method II, mouse. A general note: Microsomes from liver hold many membrane-bound enzymes, among them those of drug oxidation.
Experimental: The in vitro metabolic stability assay was performed in a 96-deep-well plate with incubation at 37° C. 10 mM DMSO stock solution of the test compound was diluted 1:20 in acetonitrile, followed by an additional 1:10 dilution in 100 mM potassium phosphate buffer (KPi) to yield a final reaction concentration of 1 μM. […] 290 μL of cofactor solution (1.7 mM NADPH, 1.7 mM UDPGA, 3.4 mM MgCl in 100 mM KPi) was added to 200 μL of microsomal protein for a final volume of 490 μL. The reaction was initiated by adding 10 μL of the 50 μM test solution to 490 μL of microsomal protein for a final volume 500 μL enzyme-compound mixture.
UPLC mobile phase A: 0.25% formic acid in 5% methanol; mobile phase B: 0.25% formic acid in 95% water.
Each microsomal elimination rate, k, was based on a 4-point elimination curve tested in duplicates. LC-MS/MS raw data for a reaction plate was returned as integrated analyte peak areas for the test compound and internal standard used in the quench solution for the reaction to enable use of analyte:internal standard peak area ratios (PARs) for all data comparisons. […]
[formula] The intrinsic clearance value, CLint (expressed as μL/min/mg microsomal protein) calculation is shown below: […]
The nature of data set [2]: Metabolic stability in liver microsomes, Method II, human. On the procedure: Determination of Metabolic Stability in Liver Microsomes—Method II
The in vitro metabolic stability assay was performed in a 96-deep-well plate with incubation at 37° C. 10 mM DMSO stock solution of the test compound was diluted 1:20 in acetonitrile, followed by an additional 1:10 dilution in 100 mM potassium phosphate buffer (KPi) to yield a final reaction concentration of 1 μM. Immediately prior to the start of the experiment, respective animal or human liver microsomes (male Sprague-dawley rat, male CD-1 mouse, or pooled human liver microsomes) were diluted in 100 mM KPi to 1.25 mg/mL liver microsomal protein. 290 μL of cofactor solution (1.7 mM NADPH, 1.7 mM UDPGA, 3.4 mM MgCl in 100 mM KPi) was added to 200 μL of microsomal protein for a final volume of 490 μL. The reaction was initiated by adding 10 μL of the 50 μM test solution to 490 μL of microsomal protein for a final volume 500 μL enzyme-compound mixture.
At 0, 5, 15 and 30 minute time points in the reaction, reaction aliquots (75 μL) were removed and the reactions were terminated by the addition of 50:50 acetonitrile/methanol solution (75 μL) containing a mass spectrometry internal standard (0.5 μM glyburide). The samples were centrifuged at 4000 RPM for 10 minutes. Supernatants (15 μL aliquots) were transferred to a new plate where each well contains 90 μL of deionized water. The supernatants solution were analyzed by UPLC/MS/MS for quantitation of parent remaining compound under multiple reactions monitoring mode (MRM) in positive mode. The percentage of compound remaining, relative to 0 minutes, was used to estimate in vitro elimination-rate constant (k) which was used to calculate in vitro metabolic clearance rates.
Analysis of the samples was performed on an ultra-performance liquid chromatography-tandem mass spectrometry (UPLC/MS/MS) system consisting of an AB Sciex Qtrap 5500 mass spectrometer, AB Sciex Turbo V ion source, Waters Acquity Sample Organizer, Waters Acquity Column manager, Waters Acquity Sample manager, and a Waters Acquity Binary Solvent Manager. Chromatographic separation of analyte and internal standard was achieved using a reverse phase C-18 column (50×2.1 mm, 1.7 μm, Acquity UPLC BEH C-18) with the following UPLC mobile phases and elution gradient: […]
UPLC mobile phase A: 0.25% formic acid in 5% methanol; mobile phase B: 0.25% formic acid in […].
LC gradient and flow rate are listed below: […]
The injection volume was 5 μL. Compounds were detected using Analyst 1.5.1 software which collects intensity data for all fragments related to the molecular weight of the test compound. After collection of the raw data, the software identifies and integrates the peak of the strongest intensity.
Each microsomal elimination rate, k, was based on a 4-point elimination curve tested in duplicates. LC-MS/MS raw data for a reaction plate was returned as integrated analyte peak areas for the test compound and internal standard used in the quench solution for the reaction to enable use of analyte:internal standard peak area ratios (PARs) for all data comparisons. The reaction time point (e.g. 0, 5, 15 and 30 minutes) was plotted versus the natural logarithm of percent test compound remaining relative to 0 minutes (based on relative PAR). The slope of this clearance plot, k, was used to calculate the in vitro half-life.
[formula] The intrinsic clearance value, CLint (expressed as μL/min/mg microsomal protein) calculation is shown below:
[formula] […]

The nature of data set [3]: Metabolic stability in liver microsomes, Method I, rat.
Experimental: The in vitro metabolic stability assay was performed in a 96-well glass plate with shaking incubation at 37° C. A 10 mM DMSO stock solution of the test compound was sequentially diluted 1:1000 to yield a final reaction concentration of 1 μM in 50 mM KPi. […] 30 μL of the 10 μM solution containing the test compound was added to 120 μL of microsomal protein for 150 μL enzyme-compound mixture. The reaction was initiated by adding 150 μL of cofactor solution (2 mM NADPH, 4 mM MgCl in 50 mM KPi) to the enzyme-compound mixture, and the final reaction concentrations are listed in the table below.
At 0, 5, 10 and 30 minute time points in the reaction, reaction aliquots (50 μL) were removed and the reactions were terminated by the addition of acetonitrile (150 μL) containing a mass spectrometry internal standard (1 μM glyburide). The samples were centrifuged and the supernatants analyzed by LC-MS/MS for quantization of remaining compound. […]
Mobile phase A consisted of purified water containing 0.01% formic acid. […] Compounds were detected using the Thermo QuikQuan software which collects intensity data for all fragments related to the molecular weight of the test compound. […]

Where a name gives a salt, the structure may show the parent alone.

`C[C@H](Nc1nccc(N2C(=O)OC[C@@H]2CF)n1)c1cn(-c2ccc(Cl)cc2)cn1` [Example 404, (R)-3-(2-(((S)-1-(1-(4-chlorophenyl)-1H-imidazol-4-yl)ethyl)amino)pyrimidin-4-yl)-4-(fluoromethyl)oxazolidin-2-one]: in data set [1], the “Mouse microsomal stability CLint” value was determined as 18.72 µL/min/mg. In addition, the “Human microsomal stability CLint” value in data set [2] is under 7.70 µL/min/mg.
The matching figures for `C[C@H](Nc1nccc(N2C(=O)OC[C@@H]2[C@H](C)F)n1)c1ncc(-c2ccnc(C(F)(F)F)c2)cc1F` [Example 463, (R)-3-(2-(((S)-1-(5-fluoro-2′-(trifluoromethyl)-[3,4′-bipyridin]-6-yl)ethyl)amino)pyrimidin-4-yl)-4-((S)-1-fluoroethyl)oxazolidin-2-one]: 35.45 µL/min/mg and 28.27 µL/min/mg.
On to `C[C@H](Nc1nccc(N2C(=O)OCC2[C@H](C)F)n1)c1cn(-c2ccc(C(F)F)cc2)cn1` (stereo partly shown) [456 as TFA salt], for which the “Rat microsomal stability CLint” value in data set [3] turned out to be 44.66 µL/min/mg. Further, the “Human microsomal stability CLint” value in data set [2] amounted to 16.79 µL/min/mg.
For the compound `C[C@H](Nc1nccc(N2C(=O)OC[C@@H]2[C@@H](C)N)n1)c1cnc(-c2ccc(Cl)cc2)s1` [Example 380, (S)-4-((R)-1-aminoethyl)-3-(2-(((S)-1-(2-(4-chlorophenyl)thiazol-5-yl)ethyl)amino)pyrimidin-4-yl)oxazolidin-2-one], in data set [1], the “Mouse microsomal stability CLint” value worked out at 51.00 µL/min/mg. For the same compound, the “Human microsomal stability CLint” value in data set [2] stood at 31.15 µL/min/mg.
The matching figures for `C[C@H](Nc1nccc(N2C(=O)OC[C@@H]2[C@H](C)F)n1)c1cn(-c2ccc(F)cc2)cn1` [Example 401, (R)-4-((S)-1-fluoroethyl)-3-(2-(((S)-1-(1-(4-fluorophenyl)-1H-imidazol-4-yl)ethyl)amino)pyrimidin-4-yl)oxazolidin-2-one]: 33.13 µL/min/mg and under 7.70 µL/min/mg.
